Results as given in patent publication US9090584B2, “Therapeutic agents for treatment of ocular hypertension” (Allergan, Inc., priority 2010, dated 2015).
Where two headings read alike, the source gives them in different places.

How the values were obtained:
normotensive dogs = details: 0.05%, once daily for 5 days
Experimental: (§1) U.S. Pat. No. 7,091,231 describes the methods used for these in vivo tests.
(§2) Isopropyl 5-(2-(3′,4-difluoro-[1,1′-biphenyl]-3-ylcarboxamido)ethyl)thiophene-2-carboxylate was tested in normotensive dogs at 0.05%, dosing once daily for 5 days. […] This compound was also tested in laser-induced hypertensive monkeys, using one single day dose.
(§3) 2-Hydroxyethyl 5-(2-(3′,4-difluoro-[1,1′-biphenyl]-3-ylcarboxamido)ethyl)thiophene-2-carboxylate was tested in normotensive dogs at 0.05%, dosing once daily for 5 days. […] This compound was also tested in laser-induced hypertensive monkeys, using one single day dose.

[1] = test system: laser-induced hypertensive monkeys; details: 0.05%, one single day dose, maximum at 6 h
Experimental: as §1, §2, §3

EP4 [2] = biological target: T1, EP4 (Homo sapiens, UniProt P35408); assay: EP4 flipr functional assay; assay type: cell-based
T1 sequence (P35408 whole entry): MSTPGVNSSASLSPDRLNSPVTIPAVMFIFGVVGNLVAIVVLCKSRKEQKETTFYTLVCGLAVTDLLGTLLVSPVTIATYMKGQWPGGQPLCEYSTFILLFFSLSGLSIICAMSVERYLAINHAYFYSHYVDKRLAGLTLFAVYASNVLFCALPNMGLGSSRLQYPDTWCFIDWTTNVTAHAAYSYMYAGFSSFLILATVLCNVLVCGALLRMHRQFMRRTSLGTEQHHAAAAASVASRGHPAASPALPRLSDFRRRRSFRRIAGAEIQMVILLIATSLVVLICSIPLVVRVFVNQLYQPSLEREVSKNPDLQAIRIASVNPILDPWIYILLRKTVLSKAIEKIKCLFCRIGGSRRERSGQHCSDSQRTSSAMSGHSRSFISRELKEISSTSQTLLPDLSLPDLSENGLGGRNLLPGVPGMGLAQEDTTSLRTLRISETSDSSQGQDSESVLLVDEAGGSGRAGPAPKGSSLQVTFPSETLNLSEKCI
Experimental: (§4) Data from running binding and activity studies on the compounds of the invention were carried out as described in U.S. Pat. No. 7,427,685, the contents of which are incorporated herein by reference.

EP4 [3] = biological target: T1, EP4; assay: EP4 binding
Experimental: as §4

EP2 [4] = biological target: T2, EP2 (Homo sapiens, UniProt P43116); assay: EP2 binding
T2 sequence (P43116 whole entry): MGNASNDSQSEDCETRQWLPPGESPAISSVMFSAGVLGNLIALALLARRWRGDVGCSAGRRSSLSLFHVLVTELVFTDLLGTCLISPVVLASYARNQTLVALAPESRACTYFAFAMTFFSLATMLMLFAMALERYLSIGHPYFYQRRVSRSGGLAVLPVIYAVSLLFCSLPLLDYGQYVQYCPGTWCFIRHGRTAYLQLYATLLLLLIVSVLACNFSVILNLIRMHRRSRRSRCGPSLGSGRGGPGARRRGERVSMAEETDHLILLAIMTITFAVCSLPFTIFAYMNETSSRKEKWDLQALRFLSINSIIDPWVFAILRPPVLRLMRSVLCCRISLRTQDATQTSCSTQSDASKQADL
Experimental: as §4

EP2 [5] = biological target: T2, EP2; assay: EP2 cAMP assay; assay type: cell-based
Experimental: as §4

EP2 [6] = biological target: T2, EP2; assay: EP2 flipr functional assay; assay type: cell-based
Experimental: as §4

hEP3A = biological target: T3, hEP3A (Homo sapiens, UniProt P43115); assay: Other receptors functional assay, hEP3A; assay type: cell-based
T3 sequence (P43115 1-390): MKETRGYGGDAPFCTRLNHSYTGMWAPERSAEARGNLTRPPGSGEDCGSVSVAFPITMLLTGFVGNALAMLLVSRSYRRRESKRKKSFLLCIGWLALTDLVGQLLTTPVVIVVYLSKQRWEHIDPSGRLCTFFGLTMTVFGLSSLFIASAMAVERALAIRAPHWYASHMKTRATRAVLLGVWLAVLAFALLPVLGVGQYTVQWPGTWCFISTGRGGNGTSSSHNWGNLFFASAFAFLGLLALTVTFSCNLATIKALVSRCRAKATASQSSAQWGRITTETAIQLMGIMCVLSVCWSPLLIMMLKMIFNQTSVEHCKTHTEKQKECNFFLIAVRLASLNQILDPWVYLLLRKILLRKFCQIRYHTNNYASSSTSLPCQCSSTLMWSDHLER
Experimental: as §4

| SMILES | EC50 (EP4 [2]) [µM] | Ki (EP4 [3]) [nM] | Ki (EP2 [4]) [nM] | EC50 (EP2 [5]) [nM] | EC50 (EP2 [6]) [nM] | EC50 (hEP3A) [nM] | maximum ocular surface hyperemia (OSH) score (normotensive dogs; maximum at 28 h) | maximum intraocular pressure (IOP) decrease from baseline (normotensive dogs; maximum at 78 h) [mmHg] | maximum intraocular pressure (IOP) decrease from baseline (percent) (normotensive dogs; maximum at 78 h) [%] | maximum IOP decrease from baseline [1] [mmHg] | maximum IOP decrease from baseline (percent) [1] [%] | maximum intraocular pressure (IOP) decrease from baseline (normotensive dogs; maximum at 52 h) [mmHg] | maximum intraocular pressure (IOP) decrease from baseline (percent) (normotensive dogs; maximum at 52 h) [%] | maximum ocular surface hyperemia (OSH) score (normotensive dogs; maximum at 54 h) |
| --- | --- | --- | --- | --- | --- | --- | --- | --- | --- | --- | --- | --- | --- | --- |
| CC(C)OC(=O)c1ccc(CCNC(=O)c2cc(-c3cccc(F)c3)ccc2F)s1 [Isopropyl 5-(2-(3′,4-difluoro-[1,1′-biphenyl]-3-ylcarboxamido)ethyl)thiophene-2-carboxylate] |  |  |  |  |  |  | 0.8 | 5.2 | 32 | 6.9 | 19 |  |  |  |
| O=C(OCCO)c1ccc(CCNC(=O)c2cc(-c3cccc(F)c3)ccc2F)s1 [2-Hydroxyethyl 5-(2-(3′,4-difluoro-[1,1′-biphenyl]-3-ylcarboxamido)ethyl)thiophene-2-carboxylate] |  |  |  |  |  |  |  |  |  | 13.1 | 31 | 6.6 | 50 | 1.6 |
| O=C(NCCc1ccc(C(=O)O)s1)c1cccc(-c2cccc(F)c2)c1 [Compound 5, 5-(2-(3′-Fluoro-[1,1′-biphenyl]-3-ylcarboxamido)ethyl)thiophene-2-carboxylic acid] | 6.02 | 739 | 150 | 8 | 26 | > 10000 |  |  |  |  |  |  |  |  |
| O=C(NCCCc1ccc(C(=O)O)s1)c1cc(F)cc(-c2cccc(F)c2)c1 [Compound 7, 5-(3-(3′,5-Difluoro-[1,1′-biphenyl]-3-ylcarboxamido)propyl)thiophene-2-carboxylic acid] | > 10 | 814 | 126 | 5 | 37 | 1420 |  |  |  |  |  |  |  |  |

More lines, main results first:

| EC50 (EP4 [2]) [µM] | Ki (EP4 [3]) [nM] | Ki (EP2 [4]) [nM] | EC50 (EP2 [5]) [nM] | EC50 (EP2 [6]) [nM] | EC50 (hEP3A) [nM] | SMILES | maximum ocular surface hyperemia (OSH) score (normotensive dogs; maximum at 28 h) | maximum intraocular pressure (IOP) decrease from baseline (normotensive dogs; maximum at 78 h) [mmHg] | maximum intraocular pressure (IOP) decrease from baseline (percent) (normotensive dogs; maximum at 78 h) [%] | maximum IOP decrease from baseline [1] [mmHg] | maximum IOP decrease from baseline (percent) [1] [%] | maximum intraocular pressure (IOP) decrease from baseline (normotensive dogs; maximum at 52 h) [mmHg] | maximum intraocular pressure (IOP) decrease from baseline (percent) (normotensive dogs; maximum at 52 h) [%] | maximum ocular surface hyperemia (OSH) score (normotensive dogs; maximum at 54 h) |
| --- | --- | --- | --- | --- | --- | --- | --- | --- | --- | --- | --- | --- | --- | --- |
| > 10 | 845 | 631 | > 10000 | > 10000 |  | O=C(O)c1ccc(CNC(=O)c2cc(-c3cccc(F)c3)ccc2F)s1 [Compound 2, 5-((3′,4-Difluoro-[1,1′-biphenyl]-3-ylcarboxamido)methyl)thiophene-2-carboxylic acid] |  |  |  |  |  |  |  |  |
| 4.44 | 750 | 122 | 4 | 11 | 4810 | O=C(NCCc1ccc(C(=O)O)s1)c1cc(F)cc(-c2cccc(F)c2)c1 [Compound 6, 5-(2-(3′,5-Difluoro-[1,1′-biphenyl]-3-ylcarboxamido)ethyl)thiophene-2-carboxylic acid] |  |  |  |  |  |  |  |  |
| > 10 | 1480 | 177 | 5 | 31 | 3290 | O=C(O)c1ccc(CCCNC(=O)c2cc(-c3cccc(F)c3)ccc2F)s1 [Compound 3, 5-(3-(3′,4-Difluoro-[1,1′-biphenyl]-3-ylcarboxamido)propyl)thiophene-2-carboxylic acid] |  |  |  |  |  |  |  |  |
| 5.14 | 648 | 63 | 2 | 49 | 8900 | O=C(O)c1ccc(CCNC(=O)c2cc(-c3cccc(F)c3)ccc2F)s1 [Compound 1, 5-(2-(3′,4-Difluoro-[1,1′-biphenyl]-3-ylcarboxamido)ethyl)thiophene-2-carboxylic acid] |  |  |  |  |  |  |  |  |
| > 10 | 8640 | 6880 | > 10000 | > 10000 |  | O=C(O)c1ccc(CCCCNC(=O)c2cc(-c3cccc(F)c3)ccc2F)s1 [Compound 4, 5-(4-(3′,4-Difluoro-[1,1′-biphenyl]-3-ylcarboxamido)butyl)thiophene-2-carboxylic acid] |  |  |  |  |  |  |  |  |
